From the CheMixHub viscosity set

Experiment: xn = mol fraction of the nth substance listed

OC[C@@H](O)[C@@H](O)[C@H](O)[C@@H](O)CO + O
Conditions | viscosity [mPa·s]
293.15 K, 101 kPa, x1 = 0.0142 | 1.458
303.15 K, 101 kPa, x1 = 0.002 | 0.8134
303.15 K, 101 kPa, x1 = 0.003592 | 0.8731
303.15 K, 101 kPa, x1 = 0.004 | 0.8647
303.15 K, 101 kPa, x1 = 0.006 | 0.916
303.15 K, 101 kPa, x1 = 0.007154 | 0.948
303.15 K, 101 kPa, x1 = 0.0078 | 0.9637
303.15 K, 101 kPa, x1 = 0.008 | 0.9675
303.15 K, 101 kPa, x1 = 0.0089 | 0.9962
303.15 K, 101 kPa, x1 = 0.01 | 1.019
303.15 K, 101 kPa, x1 = 0.012 | 1.071
303.15 K, 101 kPa, x1 = 0.0122 | 1.072
303.15 K, 101 kPa, x1 = 0.0135 | 1.104
303.15 K, 101 kPa, x1 = 0.016 | 1.175
303.15 K, 101 kPa, x1 = 0.0194 | 1.277
303.15 K, 101 kPa, x1 = 0.02 | 1.279
303.15 K, 101 kPa, x1 = 0.0228 | 1.345
303.15 K, 101 kPa, x1 = 0.024 | 1.383
303.15 K, 101 kPa, x1 = 0.026 | 1.436
303.15 K, 101 kPa, x1 = 0.028 | 1.489
305.15 K, 100 kPa, x1 = 4e-05 | 0.8093
305.15 K, 100 kPa, x1 = 7e-05 | 0.8135
308.15 K, 101 kPa, x1 = 0.004 | 0.7869
308.15 K, 101 kPa, x1 = 0.006 | 0.8221
308.15 K, 101 kPa, x1 = 0.008 | 0.8763
308.15 K, 101 kPa, x1 = 0.01 | 0.9231
308.15 K, 101 kPa, x1 = 0.012 | 0.9658
308.15 K, 101 kPa, x1 = 0.014 | 1.008
308.15 K, 101 kPa, x1 = 0.016 | 1.054
308.15 K, 101 kPa, x1 = 0.018 | 1.105
308.15 K, 101 kPa, x1 = 0.02 | 1.147
308.15 K, 101 kPa, x1 = 0.022 | 1.203
308.15 K, 101 kPa, x1 = 0.024 | 1.245
308.15 K, 101 kPa, x1 = 0.026 | 1.291
308.15 K, 101 kPa, x1 = 0.028 | 1.355
310.15 K, 100 kPa, x1 = 4e-05 | 0.7489
310.15 K, 100 kPa, x1 = 7e-05 | 0.7596
313.15 K, 101 kPa, x1 = 0.002 | 0.6825
313.15 K, 101 kPa, x1 = 0.004 | 0.7202
313.15 K, 101 kPa, x1 = 0.006 | 0.7581
313.15 K, 101 kPa, x1 = 0.007154 | 0.7675
313.15 K, 101 kPa, x1 = 0.0078 | 0.7956
313.15 K, 101 kPa, x1 = 0.008 | 0.7961
313.15 K, 101 kPa, x1 = 0.0089 | 0.815
313.15 K, 101 kPa, x1 = 0.01 | 0.8344
313.15 K, 101 kPa, x1 = 0.0107 | 0.834
313.15 K, 101 kPa, x1 = 0.012 | 0.8728
313.15 K, 101 kPa, x1 = 0.0122 | 0.8704
313.15 K, 101 kPa, x1 = 0.014 | 0.9114
313.15 K, 101 kPa, x1 = 0.016 | 0.9502
313.15 K, 101 kPa, x1 = 0.0169 | 0.9712
313.15 K, 101 kPa, x1 = 0.0177 | 0.9777
313.15 K, 101 kPa, x1 = 0.018 | 0.9891
313.15 K, 101 kPa, x1 = 0.022 | 1.068
313.15 K, 101 kPa, x1 = 0.0228 | 1.077
313.15 K, 101 kPa, x1 = 0.024 | 1.107
313.15 K, 101 kPa, x1 = 0.026 | 1.147
313.15 K, 101 kPa, x1 = 0.028 | 1.187
315.15 K, 100 kPa, x1 = 4e-05 | 0.7083
315.15 K, 100 kPa, x1 = 7e-05 | 0.7362
318.15 K, 101 kPa, x1 = 0.004 | 0.6625
318.15 K, 101 kPa, x1 = 0.006 | 0.6978
318.15 K, 101 kPa, x1 = 0.008 | 0.7286
318.15 K, 101 kPa, x1 = 0.01 | 0.7647
318.15 K, 101 kPa, x1 = 0.012 | 0.796
318.15 K, 101 kPa, x1 = 0.014 | 0.8293
318.15 K, 101 kPa, x1 = 0.016 | 0.8716
318.15 K, 101 kPa, x1 = 0.018 | 0.9013
318.15 K, 101 kPa, x1 = 0.02 | 0.9433
318.15 K, 101 kPa, x1 = 0.022 | 0.9822
318.15 K, 101 kPa, x1 = 0.024 | 1.015
318.15 K, 101 kPa, x1 = 0.026 | 1.06
318.15 K, 101 kPa, x1 = 0.028 | 1.089
323.15 K, 101 kPa, x1 = 0.002 | 0.5854
323.15 K, 101 kPa, x1 = 0.003592 | 0.5894
323.15 K, 101 kPa, x1 = 0.004 | 0.6131
323.15 K, 101 kPa, x1 = 0.006 | 0.6414
323.15 K, 101 kPa, x1 = 0.0078 | 0.6663
323.15 K, 101 kPa, x1 = 0.008 | 0.6702
323.15 K, 101 kPa, x1 = 0.0089 | 0.685
323.15 K, 101 kPa, x1 = 0.01 | 0.6996
323.15 K, 101 kPa, x1 = 0.0103 | 0.7078
323.15 K, 101 kPa, x1 = 0.0107 | 0.6878
323.15 K, 101 kPa, x1 = 0.0112 | 0.716
323.15 K, 101 kPa, x1 = 0.012 | 0.7295
323.15 K, 101 kPa, x1 = 0.0122 | 0.7288
323.15 K, 101 kPa, x1 = 0.014 | 0.76
323.15 K, 101 kPa, x1 = 0.0142 | 0.7324
323.15 K, 101 kPa, x1 = 0.015 | 0.7741
323.15 K, 101 kPa, x1 = 0.016 | 0.791
323.15 K, 101 kPa, x1 = 0.0169 | 0.8041
323.15 K, 101 kPa, x1 = 0.0177 | 0.7979
323.15 K, 101 kPa, x1 = 0.018 | 0.8226
323.15 K, 101 kPa, x1 = 0.0194 | 0.8507
323.15 K, 101 kPa, x1 = 0.02 | 0.8547
323.15 K, 101 kPa, x1 = 0.022 | 0.8874
323.15 K, 101 kPa, x1 = 0.0228 | 0.8982
323.15 K, 101 kPa, x1 = 0.024 | 0.9206
323.15 K, 101 kPa, x1 = 0.026 | 0.9544
323.15 K, 101 kPa, x1 = 0.028 | 0.9887
